Test results as given in PMC4007695 (Cell reports, 2013).

How the values were obtained:
[1] = molecular target: as-TOR2 (TOR2 kinase, analog-sensitive allele) (Saccharomyces cerevisiae, UniProt P32600, L2178A); test: in vitro kinase assay of purified TORC2 at […] ATP; assay type: biochemical
[2] = molecular target: wt-TOR2 (TOR2 kinase) (Saccharomyces cerevisiae, UniProt P32600); test: in vitro kinase assay of purified TORC2 at […] ATP; assay type: biochemical

Q: Which IC50 [1] does the source give for `Cn1c(=O)n(-c2ccc(C(C)(C)C#N)cc2)c2c3cc(-c4cnc5ccccc5c4)ccc3ncc21` [BEZ235] here?
A: 0.05 µM

Q: And the IC50 [2]?
A: 0.111 µM
